Read-outs that look alike come from different tables or passages of the source.
How the values were obtained:
[1] = system: RBL-2H3 cells; assay: IgE-induced Beta-hexosaminidase secretion in RBL-2H3 cells; assay type: cell-based; conditions: Rattus norvegicus
[2] = molecular target: Syk kinase (Homo sapiens, UniProt P43405); assay: Syk kinase enzymatic assay (Kit-Tyr 2 Peptide); assay type: biochemical
[3] = RBL-2H3, RBL-2H3 cells sensitized with SPE-7, stimulated with DNP-BSA, upper bound of each range is 'less than', read-out: IC50, IgE-induced Beta-hexosaminidase secretion
[4] = 8 concentrations, 1 μM down to 0.0003 μM, upper bound of each range is 'less than', read-out: IC50: Enzymatic Activity (Syk kinase)

IC50 [2, 4]	Structure (SMILES)	IC50 [1, 3]	IC50 ([1]; RBL-2H3, read-out: IC50, IgE-induced Beta-hexosaminidase secretion)	IC50 [2]
1 to 100 nM	CN1CCN(c2ccc(-c3cc4nccnc4c(NCC4CNCCC4(F)F)n3)cc2)CC1 (centres unmarked) [Compound 293]	100 to 1000 nM		
1 to 100 nM	Fc1cc(-c2cc3nccnc3c(NCC3CNCCC3(F)F)n2)ccc1N1CCOCC1 (centres unmarked) [Compound 294]	1 to 100 nM		
1 to 100 nM	Cc1cc(-c2cc3nccnc3c(NCC3CNCCC3(F)F)n2)ccc1N1CCOCC1 (centres unmarked) [Compound 295]	1 to 100 nM		
1 to 100 nM	CC(C)Oc1ccc(-c2cc3nccnc3c(NCC3CNCCC3(F)F)n2)cc1F (centres unmarked) [Compound 297]	1 to 100 nM		
1 to 100 nM	COc1ccc(-c2cc3nccnc3c(NCC3CNCCC3(F)F)n2)cc1Cl (centres unmarked) [Compound 298]	1 to 100 nM		
100 to 1000 nM	CN(C)C(=O)c1ccc(-c2cc3nccnc3c(NCC3CNCCC3(F)F)n2)cc1 (centres unmarked) [Compound 304]	1 to 100 nM		
1 to 100 nM	CC1CN(c2ccc(-c3cc4nccnc4c(NCC4CNCCC4(F)F)n3)cc2)CCO1 (centres unmarked) [Compound 309]	1 to 100 nM		
1 to 100 nM	CS(=O)(=O)c1ccc(-c2cc3nccnc3c(NCC3CNCCC3(F)F)n2)cc1 (centres unmarked) [Compound 310]	1 to 100 nM		
1 to 100 nM	OCCN1CCN(c2ccc(-c3cc4nccnc4c(NCC4CNCCC4(F)F)n3)cc2)CC1 (centres unmarked) [Compound 312]	1 to 100 nM		
1 to 100 nM	CC(=O)N1CCN(c2ccc(-c3cc4nccnc4c(NCC4CNCCC4(F)F)n3)cn2)CC1 (centres unmarked) [Compound 316]	1 to 100 nM		
1 to 100 nM	CC(=O)N1CCN(c2ccc(-c3cc4nccnc4c(NCC4CNCCC4(F)F)n3)cc2F)CC1 (centres unmarked) [Compound 318]	1 to 100 nM		
1 to 100 nM	CC(=O)N1CCC(n2cc(-c3cc4nccnc4c(NCC4CNCCC4(F)F)n3)cn2)CC1 (centres unmarked) [Compound 320]	1 to 100 nM		
1 to 100 nM	CS(=O)(=O)N1CCC(n2cc(-c3cc4nccnc4c(NCC4CNCCC4(F)F)n3)cn2)CC1 (centres unmarked) [Compound 321]	1 to 100 nM		
1 to 100 nM	N#CCC(=O)N1CCO[C@H](CNc2nc(-c3ccc(N4CCOCC4)cc3)cc3nccnc23)C1 [Compound 324]	1 to 100 nM		
1 to 100 nM	NS(=O)(=O)N1CCO[C@H](CNc2nc(-c3ccc(N4CCOCC4)cc3)cc3nccnc23)C1 [Compound 333]	1 to 100 nM		
1 to 100 nM	NC(=O)N1CCO[C@H](CNc2nc(-c3ccc(N4CCOCC4)cc3)cc3nccnc23)C1 [Compound 347]	1 to 100 nM		
1 to 100 nM	CS(=O)(=O)N1CCN(c2ccc(-c3cc4nccnc4c(N4CC[C@H](CO)C4)n3)cc2)CC1 [Compound 362]	1 to 100 nM		
1 to 100 nM	CN1CCN(c2ccc(-c3cc4nccnc4c(NC[C@@H]4CNCCC4(F)F)n3)cc2)CC1 [Compound 372, (S)—N-((4,4-difluoropiperidin-3-yl)methyl)-7-(4-(4-methylpiperazin-1-yl)phenyl)pyrido[4,3-b]pyrazin-5-amine]	100 to 1000 nM		
100 to 1000 nM	CN1CCN(c2ccc(-c3cc4nccnc4c(NC[C@H]4CNCCC4(F)F)n3)cc2)CC1 [Compound 373, (R)—N-((4,4-difluoropiperidin-3-yl)methyl)-7-(4-(4-methylpiperazin-1-yl)phenyl)pyrido[4,3-b]pyrazin-5-amine]	100 to 1000 nM		
1 to 100 nM	FC1(F)CCNC[C@H]1CNc1nc(-c2ccc(N3CCOCC3)nc2)cc2nccnc12 [Compound 374, (S)—N-((4,4-difluoropiperidin-3-yl)methyl)-7-(6-morpholinopyridin-3-yl)pyrido[4,3-b]pyrazin-5-amine]	1 to 100 nM		
1 to 100 nM	F[C@@]1(CNc2nc(-c3ccc(N4CCOCC4)cc3)cc3nccnc23)CCCNC1 [Compound 376, (S)—N-((3-fluoropiperidin-3-yl)methyl)-7-(4-morpholinophenyl)pyrido[4,3-b]pyrazin-5-amine]	1 to 100 nM		
1 to 100 nM	CC(=O)N1CCN(c2ccc(-c3cc4nccnc4c(NC[C@H]4CNCCC4(F)F)n3)cc2)CC1 [Compound 385, (R)-1-(4-(4-(5-((4,4-difluoropiperidin-3-yl)methylamino)pyrido[4,3-b]pyrazin-7-yl)phenyl)piperazin-1-yl)ethanone]	1 to 100 nM		
1 to 100 nM	C[C@H]1CN(c2ccc(-c3cc4nccnc4c(NC[C@@H]4CNCCO4)n3)cc2F)CCO1 [Compound 386, 7-(3-fluoro-4-((S)-2-methylmorpholino)phenyl)-N—((S)-morpholin-2-ylmethyl)pyrido[4,3-b]pyrazin-5-amine]	100 to 1000 nM		
1 to 100 nM	C[C@@H]1CN(c2ccc(-c3cc4nccnc4c(NC[C@@H]4CNCCO4)n3)cc2F)CCO1 [Compound 387, 7-(3-fluoro-4-((R)-2-methylmorpholino)phenyl)-N—((S)-morpholin-2-ylmethyl)pyrido[4,3-b]pyrazin-5-amine]	1 to 100 nM		

More lines, now with the values behind:

Structure (SMILES)	IC50 [2, 4]	IC50 [1, 3]	IC50 ([1]; RBL-2H3, read-out: IC50, IgE-induced Beta-hexosaminidase secretion)	IC50 [2]
COc1ccc(-c2cc3nccnc3c(NCC3CNCCC3(F)F)n2)cc1F (centres unmarked) [Compound 296]	1 to 100 nM	1 to 100 nM		
CNc1ccc(-c2cc3nccnc3c(NCC3CNCCC3(F)F)n2)cc1F (centres unmarked) [Compound 300]	1 to 100 nM	1 to 100 nM		
CN(C)c1ccc(-c2cc3nccnc3c(NCC3CNCCC3(F)F)n2)cc1F (centres unmarked) [Compound 301]	1 to 100 nM	1 to 100 nM		
CNc1ccc(-c2cc3nccnc3c(NCC3CNCCC3(F)F)n2)cn1 (centres unmarked) [Compound 302]	1 to 100 nM	1 to 100 nM		
CN(C)Cc1ccc(-c2cc3nccnc3c(NCC3CNCCC3(F)F)n2)cc1 (centres unmarked) [Compound 303]	100 to 1000 nM	100 to 1000 nM		
CC(=O)N1CCN(c2ccc(-c3cc4nccnc4c(NCC4CNCCC4(F)F)n3)cc2)CC1 (centres unmarked) [Compound 305]	1 to 100 nM	1 to 100 nM		
CNC(=O)COc1ccc(-c2cc3nccnc3c(NCC3CNCCC3(F)F)n2)cc1 (centres unmarked) [Compound 306]	1 to 100 nM	1 to 100 nM		
FC1(F)CCNCC1CNc1nc(-c2ccc(N3CCNCC3)cc2)cc2nccnc12 (centres unmarked) [Compound 307]	1 to 100 nM	1 to 100 nM		
CCn1cc(-c2cc3nccnc3c(NCC3CNCCC3(F)F)n2)cn1 (centres unmarked) [Compound 311]	1 to 100 nM	1 to 100 nM		
CN(c1ccc(-c2cc3nccnc3c(NCC3CNCCC3(F)F)n2)cc1)S(C)(=O)=O (centres unmarked) [Compound 313]	1 to 100 nM	1 to 100 nM		
FC1(F)CCNCC1CNc1nc(-c2cnn(C3CCOCC3)c2)cc2nccnc12 (centres unmarked) [Compound 314]	1 to 100 nM	1 to 100 nM		
OCCn1cc(-c2cc3nccnc3c(NCC3CNCCC3(F)F)n2)cn1 (centres unmarked) [Compound 315]	1 to 100 nM	1 to 100 nM		
O=C(C1CC1)N1CCO[C@H](CNc2nc(-c3ccc(N4CCOCC4)cc3)cc3nccnc23)C1 [Compound 322]	1 to 100 nM	100 to 1000 nM		
O=C(C(F)F)N1CCO[C@H](CNc2nc(-c3ccc(N4CCOCC4)cc3)cc3nccnc23)C1 [Compound 323]	1 to 100 nM	1 to 100 nM		
CS(=O)(=O)N1CCO[C@H](CNc2nc(-c3ccc(N4CCOCC4)cc3)cc3nccnc23)C1 [Compound 332]	1 to 100 nM	1 to 100 nM		
O=C(CF)N1CCO[C@H](CNc2nc(-c3ccc(N4CCOCC4)cc3)cc3nccnc23)C1 [Compound 340]			1 to 100 nM	1 to 100 nM
CCS(=O)(=O)N1CCO[C@H](CNc2nc(-c3ccc(N4CCOCC4)cc3)cc3nccnc23)C1 [Compound 346]	1 to 100 nM	1 to 100 nM		
Fc1cc(-c2cc3nccnc3c(NC[C@@H]3CNCCC3(F)F)n2)ccc1N1CCOCC1 [Compound 368, (S)—N-((4,4-difluoropiperidin-3-yl)methyl)-7-(3-fluoro-4-morpholinophenyl) pyrido[4,3-b]pyrazin-5-amine]	1 to 100 nM	1 to 100 nM		
Cc1cc(-c2cc3nccnc3c(NC[C@@H]3CNCCC3(F)F)n2)ccc1N1CCOCC1 [Compound 370, (S)—N-((4,4-difluoropiperidin-3-yl)methyl)-7-(3-methyl-4-morpholinophenyl) pyrido[4,3-b]pyrazin-5-amine]	1 to 100 nM	1 to 100 nM		
Cc1cc(-c2cc3nccnc3c(NC[C@H]3CNCCC3(F)F)n2)ccc1N1CCOCC1 [Compound 371, (R)—N-((4,4-difluoropiperidin-3-yl)methyl)-7-(3-methyl-4-morpholinophenyl)pyrido[4,3-b]pyrazin-5-amine]	1 to 100 nM	1 to 100 nM		
CC(=O)N1CCN(c2ccc(-c3cc4nccnc4c(NC[C@@H]4CNCCC4(F)F)n3)cc2)CC1 [Compound 384, (S)-1-(4-(4-(5-((4,4-difluoropiperidin-3-yl)methylamino)pyrido[4,3-b]pyrazin-7-yl)phenyl)piperazin-1-yl)ethanone]	1 to 100 nM	1 to 100 nM		
CNC(=O)COc1ccc(-c2cc3nccnc3c(NC[C@@H]3CNCCC3(F)F)n2)cc1 [Compound 388, (S)-2-(4-(5-((4,4-difluoropiperidin-3-yl)methylamino)pyrido[4,3-b]pyrazin-7-yl)phenoxy)-N-methylacetamide]	1 to 100 nM	1 to 100 nM		
CNC(=O)COc1ccc(-c2cc3nccnc3c(NC[C@H]3CNCCC3(F)F)n2)cc1 [Compound 389, (R)-2-(4-(5-((4,4-difluoropiperidin-3-yl)methylamino)pyrido[4,3-b]pyrazin-7-yl)phenoxy)-N-methylacetamide]	1 to 100 nM	1 to 100 nM		
CS(=O)(=O)c1ccc(-c2cc3nccnc3c(NC[C@@H]3CNCCC3(F)F)n2)cc1 [Compound 390, (S)—N-((4,4-difluoropiperidin-3-yl)methyl)-7-(4-(methylsulfonyl)phenyl)pyrido[4,3-b]pyrazin-5-amine]	1 to 100 nM	1 to 100 nM		
CCn1cc(-c2cc3nccnc3c(NC[C@@H]3CNCCC3(F)F)n2)cn1 [Compound 392, (S)—N-((4,4-difluoropiperidin-3-yl)methyl)-7-(1-ethyl-1H-pyrazol-4-yl)pyrido[4,3-b]pyrazin-5-amine]	1 to 100 nM	1 to 100 nM		

— patent publication US10052330B2, “Substituted pyrido[3,4-b]pyrazines as Syk inhibitors” (HUTCHISON MEDIPHARMA LIMITED, priority 2011, dated 2018)
